Read-outs that look alike come from different tables or passages of the source. Residues, ends and D or L forms follow the SMILES beside them. *: point of attachment. Biotin = O=C1N[C@H]2[C@H](CS[C@H]2CCCCC(=O)*)N1 A value given as a limit tells only on which side of the number the result lay.

The source of these data is US20250345446A1 (Draupnir Bio ApS, priority 2022, published 2025).

In assay [1] the test system is HEK293/sortilin cells. As to the kind of experiment: Lysosomal sorting and degradation of NA650 (microscopy, blotted lysates, leupeptin). To be noted: NA650 100 nM. The format is cell-based. Here is the method:
Cellular uptake of target NA650 was analyzed with fluorescence microscopy. For this assay, coverslips in 4 well plates were coated with poly-L lysine prior to seeding of HEK293/sortilin cells (25K cells/coverslip) in culture media (as described in Example 3)) and incubated overnight in cell incubator (37° C., humidified, 5% CO2). The culture media was replaced with assay media (as described in Example 3) containing NA650 (Invitrogen) (500 nM) (Thermo Fischer), a compound according to SEQ ID NO.: 147 (2 μM) and AF38469 (100 μM, MedChemExpress). The cells were incubated in a cell incubator for 4 hours before washing in dPBS (Bionordika) followed by fixation with dPBS+4% PFA (Sigma Aldrich) for 15 minutes. […] The fluorescent signal was analyzed using a laser scanning confocal microscope (LSM-800). […]
Culture medium was replaced with assay medium (DMEM (Lonza), 10% fetal bovine serum (Sigma Aldrich), 1% penicillin-streptomycin (Sigma Aldrich), 1% GlutaMAX (Gibco)) with or without NA650 (Invitrogen) (100 nM) (Thermo Fischer), peptidic bifunctional compound (300 nM) and leupeptin (80 μM) (Sigma Aldrich). […] Proteins were blotted onto a nitrocellulose membrane (Thermo Fisher), and the DyLight650 signal was detected using an iBright 1500 (Thermo Fisher). […]

Another assay has as its target TNFa-6His (Homo sapiens, UniProt P01375). The assay can be described thus: MST binding to TNFa-6his. To be noted: Table 8, NTA labeled TNFa-6His (100 nM), read-out: KD (score), Kd of TNFalpha binding. An excerpt: MST was measure analogously to example 1 using TNFa-6his.
Assay [2] has as its target T1, soluble ectodomain of sortilin-6his (Homo sapiens, UniProt Q99523, V650M).
T1 construct: the soluble ectodomain of sortilin-6his is measured by microscale thermophoresis (MST)
As to the kind of experiment: MST binding to soluble ectodomain of sortilin-6his.

Assay [3] deals with HEK293 cells expressing full length sortilin receptor. As to the kind of experiment: Cellular uptake of AlexaFluor488-anti-DNP antibody. In kind it is cell-based. The following applies: Table 7; AlexaFluor488-anti-DNP antibody (100 nM), 3 h, DNP warhead compounds. An excerpt: In this example, the small molecule degraders consist of a sortilin binder linked to warhead DNP to target anti-DNP antibodies (BF001 to BF016)
Cellular uptake of AlexaFluor488-anti-DNP antibody (Thermo Fisher) was investigated in HEK293 cells expressing full length sortilin receptor in a methodology analogous to example 3.

The test system of assay [4] is untransfected HEK239 cells. The assay can be described thus: Cellular uptake of target in untransfected HEK293 cells (Example 22). The following applies: HEK293 cells without sortilin, 3 h, 2 nM to 2 μM, corresponding targets. The format is cell-based.
From the text: Cellular uptake of target was investigated in untransfected HEK239 cells and HEK293 cells expressing sortilin receptor in a methodology analogous to example 3.
The test system of assay [5] is HEK293 cells expressing full length sortilin receptor. The assay can be described thus: Cellular uptake of NA650 in HEK293/sortilin cells. The format is cell-based. The following applies: 3 h incubation, 9.8 nM to 10 μM, NA650 100 nM. The protocol: Cellular uptake of NA650 was investigated in HEK293 cells expressing full length sortilin receptor (Petersen et. al.). Cells were seeded in poly-L-lysine coated 96-well plates (Perkin Elmer) (40K/well) in 50 μL culture medium (DMEM (Lonza)+10% FBS (SigmaAldrich)+1% penicillin-streptomycin (SigmaAldrich)+1% GlutaMAX (Gibco)+100 μg/mL Zeocin (Invitrogen)) and incubated overnight in cell incubator (37° C., humidified, 5% CO2).
Culture medium was replaced with assay medium (DMEM (Lonza)+10% fetal bovine serum (SigmaAldrich)+1% penicillin-streptomycin (SigmaAldrich)+1% GlutaMAX (Gibco)) containing NA650 (Invitrogen) (100 nM) (Thermo Fischer) and peptidic bifunctional compounds (9.8 nM to 10 μM). Cells were incubated for 3 h in cell incubator before they were washed in dPBS (Bionordika). The DyLight650 signal in the cell layer was detected using a fluorescence plate reader (BMG Labtech Clariostar).
Cellular uptake of NA650 was investigated in HEK293 cells expressing full length sortilin receptor using a methodology analogous to example 3.

In assay [6] the test system is HEK293/sortilin cells. The assay can be described thus: Depletion of NA650 from cell culture supernatant. To be noted: for reduction in NA650 signal in cell culture supernatant: single addition, NA650 100 nM. The format is cell-based. Here is the method: HEK293/sortilin cells were cultured in culture media containing DMEM (Lonza) further supplemented with 10% fetal bovine serum (Sigma), 1% GlutaMax Supplement (Gibco), penicillin-streptomycin (Thermo Fischer) and selection antibiotics 100 μg/mL Zeocin (Invitrogen). 35k cells/well were seeded in poly-L-lysine coated 96-well plates (Perkin Elmer) and allowed to incubate for 16-24 h in cell incubator (37° C., humidified, 5% CO2). Culture media were discarded, and the cells were washed with assay medium containing FluoroBright DMEM (Gibco) supplemented with 10% fetal bovine serum (Sigma) and 1% GlutaMax Supplement (Gibco). The media were discarded and replaced with assay media or assay medium containing 100 nM NA650 (Invitrogen). For wells evaluating the bifunctional compounds, the assay medium also contained concentrations ranging from 20 nM to 5 μM. After an incubation period of up to 72 h in the cell incubator the media were harvested and the presence of NA650 were evaluated by fluorescence intensity (FI) measurements of DyLight650 using a fluorescence plate reader (BMG Labtech Clariostar).
HEK293/sortilin cells (35k cells/96-well) were seeded in culture media (as described in Example 3) and incubated for 24 h in cell incubator. Culture media were discarded, and the cells were washed with assay medium containing FluoroBright DMEM (Gibco) and supplements as described in Example 3, before incubation in assay medium containing 100 nM NA650 and small molecule bifunctional compounds (20 nM to 5 μM). After an incubation period of up to 72 h, the media were harvested and the presence of NA650 were evaluated by FI measurements of DyLight650 using a fluorescence plate reader (BMG Labtech Clariostar).

The target in assay [7] is streptavidin, bifunctional compound and sortilin-6his (UniProt P22629+Q99523, V650M). The assay can be described thus: TR-FRET ternary complex formation streptavidin / bifunctional peptide / sortilin-6his. The following applies: Table 2; […] incubation, HTRF ratio 665/620 nm. In general terms: In TR-FRET formats the signal depends on donor and acceptor labels being close together.
Method: In these experiments, the compounds of interest were titrated over 24-point in a 384-well TTP LVDS plate (SPT Labtech) to a final buffer composition of 50 mM Bis-Tris Propane pH 8, 50 mM NaCl, 0.05% Tween20, with or without 10% DMSO using a Mosquito LV pipetting robot (SPT Labtech).
The reaction was allowed to incubate for 2.5 hours at room temperature, at which point the HTRF signal ratio at 665/620 nm was determined using a plate reader (ClarioStar, BMG Labtech). All reactions were run in triplicates and data was represented as HTRF ratio as a function of bifunctional compound concentration.

The mark [8] stands for this setting: Table 4, small molecule bifunctional compounds, MST, read-out: KD score, binding to sortilin (Kd).

Chain of TNFa-6His (P01375 77-233 limits assumed): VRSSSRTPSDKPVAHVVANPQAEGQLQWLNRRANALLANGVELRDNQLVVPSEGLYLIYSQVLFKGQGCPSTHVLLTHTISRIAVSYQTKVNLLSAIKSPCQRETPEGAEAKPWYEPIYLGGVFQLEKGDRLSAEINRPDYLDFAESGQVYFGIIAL
T1 sequence (Q99523 with tags, fused parts or gaps V650M): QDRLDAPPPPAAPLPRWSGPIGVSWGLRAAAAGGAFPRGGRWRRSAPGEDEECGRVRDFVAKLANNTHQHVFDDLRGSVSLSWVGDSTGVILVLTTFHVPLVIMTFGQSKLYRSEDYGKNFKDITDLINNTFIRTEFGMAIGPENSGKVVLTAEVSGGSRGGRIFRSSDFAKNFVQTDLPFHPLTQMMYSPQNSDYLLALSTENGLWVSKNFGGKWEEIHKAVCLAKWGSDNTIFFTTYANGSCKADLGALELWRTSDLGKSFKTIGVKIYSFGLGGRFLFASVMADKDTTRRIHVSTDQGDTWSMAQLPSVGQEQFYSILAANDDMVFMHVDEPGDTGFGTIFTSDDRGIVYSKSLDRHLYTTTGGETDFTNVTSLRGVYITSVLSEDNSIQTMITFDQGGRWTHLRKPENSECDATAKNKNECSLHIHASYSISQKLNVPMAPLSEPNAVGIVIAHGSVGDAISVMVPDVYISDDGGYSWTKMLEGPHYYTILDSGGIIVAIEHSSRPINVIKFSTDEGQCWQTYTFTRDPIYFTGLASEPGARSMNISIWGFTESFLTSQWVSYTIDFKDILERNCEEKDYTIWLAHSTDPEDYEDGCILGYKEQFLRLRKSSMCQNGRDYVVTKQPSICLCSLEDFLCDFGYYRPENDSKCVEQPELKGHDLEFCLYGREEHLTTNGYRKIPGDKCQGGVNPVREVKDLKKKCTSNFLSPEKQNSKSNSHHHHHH

On to `CC(C)(C)CCC(NC(=O)c1ccc(Oc2cccc(OCCOCCOCCOCCOCCOCCNC(=O)CCCC[C@@H]3SC[C@@H]4NC(=O)N[C@@H]43)c2)nc1)C(=O)O` (stereo partly shown) [B025], for which the “NA650 band in lysate” value in the assay with HEK293/sortilin cells [1] (24 h incubation, compound 300 nM) is on record as “visible in cells incubated with B025 alone”.
The term Kd denotes the equilibrium constant for the complex coming apart. For `C[C@@H]1CN(c2ncc(-c3ccc4c(n3)N(Cc3cccnc3C#N)C(C)(C)C4=O)cn2)CCN1C(=O)CNC(=O)CCCCCCCCCCn1cc(-c2cccc(Oc3ccc(C(=O)N[C@@H](CCC(C)(C)C)C(=O)O)cn3)c2)nn1` [BF081, (2S)-2-[[6-[3-[1-[11-[[2-[(2R)-4-[5-[1-[(2-cyano-3-pyridyl)methyl]-2,2-dimethyl-3-oxo-pyrrolo[2,3-b]pyridin-6-yl]pyrimidin-2-yl]-2-methyl-piperazin-1-yl]-2-oxo-ethyl]amino]-11-oxo-undecyl]triazol-4-yl]phenoxy]pyridine-3-carbonyl]amino]-5,5-dimethyl-hexanoic acid], the Kd was less than 2000 nM at TNFa-6His and 1 to 10 nM in assay [2] (setting [8]).
Turning to `C[C@@H]1CN(c2ncc(-c3ccc4c(n3)N(Cc3cccnc3C#N)C(C)(C)C4=O)cn2)CCN1C(=O)CNC(=O)CCCCCOCCOCCNC(=O)c1cccc(Oc2ccc(C(=O)N[C@@H](CCC(C)(C)C)C(=O)O)cn2)c1` [BF0100], the Kd on TNFa-6His was less than 2000 nM.
In the case of `Cc1nc2cc(F)c(-c3cnc(OCCCCCn4cc(COCCOCCOCCOCCNC(=O)c5ccc(Oc6cccc(OCC(=O)N[C@@H](CCC(C)(C)C)C(=O)O)c6)nc5)nn4)nc3)nc2c(N[C@H](C)c2cc(C#N)ccc2F)c1Cl` [BF076], the values for the Kd (at TNFa-6His; in assay [2] (setting [8])) were less than 2000 nM and 10 to 250 nM, respectively.
Regarding `Cc1cc(-c2ccc(OCC(=O)NCCOCCOCc3cn(CCCCCOc4ncc(-c5nc6c(N[C@@H](C)c7cc(C#N)ccc7F)c(Cl)c(C)nc6cc5F)cn4)nn3)cc2)cc(NC(=O)c2ccc(C(F)(F)F)cc2C(=O)O)n1` [BF080], the Kd at TNFa-6His is less than 2000 nM; in assay [2] (setting [8]), less than 1 nM.
As for `CC(C)(C)CC[C@H](NC(=O)c1ccc(Oc2cccc3c(C(=O)NCCCNC(=O)CCOCCOCCOCCNc4ccc([N+](=O)[O-])cc4[N+](=O)[O-])cccc23)nc1)C(=O)O` [BF005, (2S)-2-[[6-[5-[3-[3-[2-[2-[2-(2,4-dinitroanilino)ethoxy]ethoxy]ethoxy]propanoylamino]propylcarbamoyl]-1-naphthyl]oxy]pyridine-3-carbonyllamino]-5,5-dimethyl-hexanoic acid], the “AUC score, target internalization” value in assay [3] is listed as “++ (AUC > 10.000)”. In assay [2], this compound displayed an equilibrium dissociation constant (Kd) of 1 to 10 nM. In addition, in assay [4], the “cell associated FI response to increasing degrader concentration” value is listed as “No response”.
Take `C[C@@H]1CN(c2ncc(-c3ccc4c(n3)N(Cc3cccnc3C#N)C(C)(C)C4=O)cn2)CCN1C(=O)CNC(=O)COCCOCCOCCOCCOc1cccc(Oc2ccc(C(=O)N[C@@H](CCC(C)(C)C)C(=O)O)cn2)c1` [BF082]: the Kd on TNFa-6His is greater than 2000 nM; in assay [2] (setting [8]) it was 1 to 10 nM.
Regarding `Cc1nc2cc(F)c(-c3cnc(OCCOCCOCCOCCOCCOCCOCCNC(=O)c4ccc(Oc5cccc(OCC(=O)N[C@@H](CCC(C)(C)C)C(=O)O)c5)nc4)nc3)nc2c(N[C@H](C)c2cc(C#N)ccc2F)c1Cl` [BF079], on TNFa-6His, the Kd was less than 2000 nM.
For the compound `CC(C)C[C@H](NC(=O)[C@H](CC(C)C)NC(=O)[C@H](CCC(N)=O)NC(=O)[C@H](CCCNC(=N)N)NC(=O)CNC(=O)CNC(=O)[C@H](CO)NC(=O)CNC(=O)CNC(=O)CNC(=O)CNC(=O)[C@H](CO)NC(=O)CNC(=O)CNC(=O)CNC(=O)CNC(=O)[C@H](CO)NC(=O)CNC(=O)CNC(=O)CCCC[C@@H]1SC[C@@H]2NC(=O)N[C@@H]21)C(=O)O` [SEQ ID NO.: 147] (Biotin-GGSGGGGSGGGGSGGRQLL-OH), the “cell associated FI signal, response to concentration series (in words)” value in assay [5] is recorded as “bell-shaped response”. In addition, in the assay with HEK293/sortilin cells [1] (2 h incubation, bifunctional molecule 300 nM, anti-LAMP1 staining), the “subcellular localization of internalized NA650 (fluorescence microscopy)” value is given as “co-localizes with lysosomal marker”. Besides, the results for the “reduction in NA650 signal in cell culture supernatant” value with HEK293/sortilin cells [6] (after 24 h), in the assay on HEK293/sortilin cells [6] (after 48 h) and in the assay on HEK293/sortilin cells [6] (after 72 h) were 16%, 46% and 61%, respectively. For the same compound, the “degrader concentration of highest uptake of target” value in the assay with HEK293/sortilin cells [6] (all timepoints (24, 48, 72 h)) is reported as 312 nM. For the same compound, the “AUC score, TR-FRET measurements of ternary complex formation” value in assay [7] is reported as “++ (AUC > 5000)”. Further, in assay [2] (Table 1, biotin-linker-peptide bifunctional compounds, MST, read-out: KD score, binding to sortilin (Kd)), the Kd lay in the range of 100 to 2000 nM.
